{"source": "patent US20100240656A1", "about": "“COMPOUNDS AS HSP90 INHIBITORS” (ORYZON GENOMICS, S.A., priority 2007, published 2010)", "key": {"WI-38": {"test_system": "WI-38", "assay": "Cell proliferation by MTT method, WI-38", "type": "cell-based", "settings": "Homo sapiens", "procedure": "(§1) The objective of this study was to determine the influence of the compounds on cell proliferation of K-562, A-549, MCF-7, HeLa, WI-38 by MTT method. The compounds were tested over a three-fold dilution series in triplicate for the determination of EC50 of their influence on cell proliferation.\n(§2) The assay is based on the cleavage of the yellow tetrazolium salt MTT into purple formazan by metabolically active cells. The MTT formazan crystals are insoluble in aqueous solution, but may be solubilized by adding the 10% SDS, then incubating the plates overnight in a humidified atmosphere (e.g., 37° C., 5% CO2). The solubilized formazan product can be photometrically quantitated using Tecan reader. An increase in the number of living cells results in an increase of total metabolic activity, which leads to a stronger color formation.\n(§3) EC50 values are defined as the compound concentration at which 50% of reaction product is formed.\n(§4) Test compounds were dissolved to 10 mM in 100% DMSO.\n(§5) In the day of the experiment cells were seeded into all wells of 96-well plates. Serial dilution of compounds was performed in a separate 96-well plate at 20 times final assay concentration in cell culture medium (DMEM with 10% Fetal Bovine Serum). 5 μl of compound was transferred to 96-well plate containing seeded cells in cell culture medium (final total volume=100 μl). Cells were cultured in the presence of the respective test substances in the 96-well plate at 37° C. in a humidified 5% CO2 incubator for a certain period of time (24, 72 or 120 hours). Then 5 μL of thiazolyl blue tetrazolium bromide (MTT) 5 mg/mL was added to the cells and the cells were reincubated 4 hours in a humidified 5% CO2 incubator. Then 10% SDS was added into the each well. The reaction product was quantified by measuring the absorbance at 568 nm using a scanning multiwell spectrophotometer Tecan. The developed color and thereby the absorbance values directly correlate to the number of the living cells.\n(§6) The data were analyzed using Microsoft Excel 2000, GraphPad Prism 3.03. […]"}, "MCF-7": {"test_system": "MCF-7", "assay": "Cell growth inhibition by AlamarBlue method, MCF-7", "type": "cell-based, human", "settings": "Homo sapiens, MCF7; MCF-7, 72 hours; read-out: Cell growth inhibition values (EC50) obtained with AlamarBlue method", "procedure": "The human colon cancer cell line HCT-116 and the human breast cell lines MCF-7 and SKBr3 were from the American Type Culture Collection (ATCC; CCL-247, HTB-22 and HTB-30, respectively).\nThe HCT-116 and SKBr3 cell lines were maintained in DMEM GlutaMAX (Invitrogen) supplemented with 10% fetal calf serum and the MCF-7 cell line was maintained in RPMI1640 GlutaMAX (Invitrogen) containing 1 mM sodium pyruvate and 10% fetal calf serum. Cells were grown in a humidified incubator at 37° C. in 5% CO2\nCells were plated in 96-well plates (Costar, 3596) at a density of 6000 cells/well in 50 μL medium 24 h before addition of the compounds. Compounds were then added in 8 concentrations, each in triplicate (dilution series of 1 to 3). To do so, a compound-dilution plate at 200× the screening concentrations was prepared in DMSO 100% (Sigma, 154938). Then, 1.7 μL of the 200× diluted compounds were transferred to a new plate and 170 μL of media were added and mixed with the pipette (plate at 2×). Columns 11 and 12 of this plate (controls) were filled with 1% DMSO in cell media (i.e. 1.7 μL DMSO and 170 μL cell media). Finally, 50 μL of this intermediate plate at 2× were transferred to the plate containing the seeded cells and slowly shaken manually. Cells were grown as described above. AlamarBlue viability assay (Biosource, Invitrogen, DAL1100) was performed 72 hours later following manufacturer's protocol. In brief, AlamarBlue diluted in media was added to cells to have a 5% solution (a 2× solution was prepared in media and 100 μL of this solution were transferred to each well, i.e. final volume of 200 μL). Cells were incubated at 37° C., 3 hours and at room temperature for an additional 30 min. Cells with no compound and, cells with no compound and lysed with triton X-100 (30 μL/well added 10 min before treatment with AlamarBlue) were used as controls (6 replicates of each). Fluorescence was monitored at 530 nm excitation and 590 nm emission wavelengths. Results were quantified using ELx800 Universal Microplate Reader (Bio-Tek Instruments, Inc.). EC50 were calculated as the dose of compound required to inhibit cell growth by 50%."}, "HeLa": {"test_system": "HeLa", "assay": "Cell proliferation by MTT method, HeLa", "type": "cell-based", "settings": "Homo sapiens", "procedure": "as §1, §2, §3, §4, §5, §6"}, "K-562": {"test_system": "K-562", "assay": "Cell proliferation by MTT method, K-562", "type": "cell-based", "settings": "Homo sapiens", "procedure": "as §1, §2, §3, §4, §5, §6"}}, "data": [{"smiles": "NCCCCCn1c(Sc2cc3c(cc2I)OCO3)nc(C(N)=O)c1N", "note": "[Example 6, 5-amino-1-(5-amino-pentyl)-2-(6-iodo-benzo[1,3]dioxol-5-ylsulfanyl)-1H-imidazole-4-carboxamide]", "values": [{"measurement": "EC50", "setting": "WI-38; 24 h, WI-38, incubation 1 day", "value": "> 100", "unit": "µM"}, {"measurement": "EC50", "setting": "WI-38; 72 h, WI-38, incubation 3 days", "value": 27.7, "unit": "µM"}, {"measurement": "EC50", "setting": "WI-38; 120 h, WI-38, incubation 5 days", "value": 19.5, "unit": "µM"}, {"measurement": "EC50", "setting": "MCF-7", "value": 15.9, "unit": "µM"}, {"measurement": "EC50", "setting": "HeLa; 24 h, incubation 1 day", "value": "> 100", "unit": "µM"}, {"measurement": "EC50", "setting": "HeLa; 72 h, incubation 3 days", "value": 14.6, "unit": "µM"}, {"measurement": "EC50", "setting": "HeLa; 120 h, incubation 5 days", "value": 8.6, "unit": "µM"}, {"measurement": "EC50", "setting": "K-562; K562, 24 h, K 562, incubation 1 day", "value": "> 100", "unit": "µM"}, {"measurement": "EC50", "setting": "K-562; K562, 72 h, K 562, incubation 3 days", "value": 12.2, "unit": "µM"}, {"measurement": "EC50", "setting": "K-562; K562, 120 h, K 562, incubation 5 days", "value": 9.1, "unit": "µM"}]}]}
